Results: article PMC4064249, “Differences in proton pumping and Na/H exchange at the leaf cell tonoplast between a halophyte and a glycophyte” (AoB Plants, 2014)
Where two headings read alike, the source gives them in different places.

What was measured:
V-H+-ATPase = test system: T1, V-H+-ATPase; details: ATP 0.05-1.5 mM, […] MgCl2, 100 mM KCl, MOPS-TRIS pH 7.0, 22 °C; control plants (10 mM NaCl); corrected for vesicle orientation
T1 construct: gene VHA-A
Protocol: ATP-dependent H+ transport, ACMA fluorescence quenching, Michaelis-Menten fit on V-H+-ATPase | Kinetic analysis was performed by fitting a Michaelis–Menten curve through the data points

V-H+-PPase = test system: T2, V-H+-PPase; details: PPi 0.005-[…], […] MgCl2, 100 mM KCl, MOPS-TRIS pH 7.0, 22 °C, corrected for vesicle orientation
T2 construct: gene VHP1
Protocol: PPi-dependent H+ transport, ACMA fluorescence quenching, Michaelis-Menten fit on V-H+-PPase | Kinetic analysis was performed by fitting a Michaelis–Menten curve through the data points

SMILES	Km (V-H+-ATPase) [µM]	Km (V-H+-PPase; control plants (0 mM NaCl)) [µM]	Km (V-H+-PPase; control plants (10 mM NaCl)) [µM]
Nc1ncnc2c1ncn2[C@@H]1O[C@H](COP(=O)(O)OP(=O)(O)OP(=O)(O)O)[C@@H](O)[C@H]1O [ATP]	250 ± 110		
O=P(O)(O)OP(=O)(O)O [pyrophosphate]		43 ± 24	34 ± 14
